How the values were obtained:
[1] = molecular target: Programmed cell death protein 1/Programmed cell death 1 ligand 1 (Homo sapiens, UniProt Q15116+Q9NZQ7); experiment: Inhibition of PD-1/PD-L1 (unknown origin) protein protein interaction; format: protein-complex assay
Procathepsin L = Procathepsin L (Homo sapiens, UniProt P07711); experiment: Inhibition of human cathepsin L
Prothrombin = Prothrombin (Homo sapiens, UniProt P00734); experiment: Inhibition of human thrombin
[2] = molecular target: Spike glycoprotein/Angiotensin-converting enzyme 2 (Severe acute respiratory syndrome coronavirus 2, UniProt P0DTC2+Q9BYF1); experiment: Inhibition of His-tagged SARS-CoV2 USA-WA1/2020 spike-RBD/biotinylated Fc-tagged ACE2 (unknown origin) protein protein interaction incubated for 1 hr by Alphascreen assay
[3] = molecular target: Replicase polyprotein 1ab (Severe acute respiratory syndrome coronavirus 2, UniProt P0DTD1); experiment: Inhibition of SARS-CoV2 MPro using Dabcyl-KTSAVLQSGFRKME-Edans as substrate by fluorescence based analysis

Sequence of Spike glycoprotein/Angiotensin-converting enzyme 2 (Q9BYF1 18-805 limits assumed, other chains not shown): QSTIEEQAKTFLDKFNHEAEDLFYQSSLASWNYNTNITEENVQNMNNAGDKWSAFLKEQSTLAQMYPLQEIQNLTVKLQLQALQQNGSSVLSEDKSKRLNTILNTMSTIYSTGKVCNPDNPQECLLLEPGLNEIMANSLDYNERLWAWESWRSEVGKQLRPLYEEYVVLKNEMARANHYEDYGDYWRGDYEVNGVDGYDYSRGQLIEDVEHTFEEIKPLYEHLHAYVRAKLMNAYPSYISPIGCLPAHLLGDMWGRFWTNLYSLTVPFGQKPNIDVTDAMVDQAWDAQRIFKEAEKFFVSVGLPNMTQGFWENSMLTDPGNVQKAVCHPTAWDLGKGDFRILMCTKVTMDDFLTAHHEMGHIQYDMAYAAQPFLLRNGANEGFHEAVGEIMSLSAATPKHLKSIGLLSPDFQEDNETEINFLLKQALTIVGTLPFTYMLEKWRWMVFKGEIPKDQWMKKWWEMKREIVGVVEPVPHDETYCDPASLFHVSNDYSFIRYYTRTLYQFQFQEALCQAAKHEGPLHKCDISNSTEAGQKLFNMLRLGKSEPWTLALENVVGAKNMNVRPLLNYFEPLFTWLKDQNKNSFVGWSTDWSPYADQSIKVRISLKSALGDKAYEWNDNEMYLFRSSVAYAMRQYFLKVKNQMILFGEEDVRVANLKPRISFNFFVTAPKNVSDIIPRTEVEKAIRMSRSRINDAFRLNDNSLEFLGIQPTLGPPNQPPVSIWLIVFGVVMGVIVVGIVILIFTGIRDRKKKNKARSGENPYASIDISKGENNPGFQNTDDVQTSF
Sequence of Programmed cell death protein 1/Programmed cell death 1 ligand 1 (Q15116 whole entry): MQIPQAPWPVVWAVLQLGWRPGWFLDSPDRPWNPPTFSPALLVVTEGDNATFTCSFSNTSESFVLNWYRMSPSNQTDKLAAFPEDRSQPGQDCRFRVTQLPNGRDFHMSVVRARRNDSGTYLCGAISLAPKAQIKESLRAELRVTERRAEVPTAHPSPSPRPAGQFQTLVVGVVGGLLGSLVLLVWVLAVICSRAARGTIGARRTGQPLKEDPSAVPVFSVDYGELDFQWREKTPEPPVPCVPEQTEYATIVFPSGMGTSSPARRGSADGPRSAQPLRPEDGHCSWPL
Sequence of Programmed cell death protein 1/Programmed cell death 1 ligand 1 (Q9NZQ7 whole entry): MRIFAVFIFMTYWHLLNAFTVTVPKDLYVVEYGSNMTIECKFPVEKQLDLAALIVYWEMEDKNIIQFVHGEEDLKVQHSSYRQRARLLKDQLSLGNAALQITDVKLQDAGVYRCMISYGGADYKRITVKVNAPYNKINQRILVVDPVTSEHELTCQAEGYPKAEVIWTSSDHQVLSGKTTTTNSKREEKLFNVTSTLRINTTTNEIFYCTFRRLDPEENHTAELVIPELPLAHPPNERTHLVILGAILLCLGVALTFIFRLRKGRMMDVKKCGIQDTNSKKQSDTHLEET
Sequence of Procathepsin L (P07711 whole entry): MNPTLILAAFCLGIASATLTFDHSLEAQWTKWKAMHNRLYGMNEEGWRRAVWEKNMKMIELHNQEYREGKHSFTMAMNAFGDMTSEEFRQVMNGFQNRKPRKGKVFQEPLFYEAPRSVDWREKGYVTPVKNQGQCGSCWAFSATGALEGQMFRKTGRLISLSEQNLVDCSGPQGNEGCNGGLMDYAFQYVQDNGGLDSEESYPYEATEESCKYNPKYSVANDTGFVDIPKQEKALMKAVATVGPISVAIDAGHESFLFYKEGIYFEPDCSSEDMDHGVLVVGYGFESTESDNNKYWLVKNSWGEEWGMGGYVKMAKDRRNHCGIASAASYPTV

Row | Compound | IC50 [1] [µM] | IC50 (Procathepsin L) [µM] | IC50 (Prothrombin) [µM] | IC50 [2] [µM] | IC50 [3] [µM]
1 | CCCCCCCCCC(C)CCC(C)C(=O)O (configuration not stated) | > 390 | 218 | > 390 | – | –
2 | CCCCCCCCCC(C)CCC(C)C(=O)OC (configuration not stated) | – | – | – | > 370 | > 370
3 | CCCCCCCCCC(C)CCC(C)C(=O)OCc1ccccc1 (configuration not stated) | – | – | – | > 289 | > 289

From ChEMBL document CHEMBL5532685 (J Nat Prod, 2024)
